Reference: ChEMBL document CHEMBL1201861, “Genomics of Drug Sensitity in Cancer screening data, Wellcome Trust Sanger Institute”

How the values were obtained:
Assay in all cases: cells
DJM-1 = format: functional, cell-based, Homo sapiens; settings: Homo sapiens, DJM-1
Description: SANGER: Inhibition of human DJM-1 cell growth in a cell viability assay.

CTV-1 = format: functional, cell-based; settings: Homo sapiens
Description: SANGER: Inhibition of human CTV-1 cell growth in a cell viability assay.

NKM-1 = format: functional, cell-based; settings: Homo sapiens
NCI-H510A = format: functional, cell-based; settings: Homo sapiens
CCRF-CEM = format: functional, cell-based; settings: Homo sapiens
Description: SANGER: Inhibition of human CCRF-CEM cell growth in a cell viability assay.

OS-RC-2 = format: functional, cell-based, Homo sapiens; settings: Homo sapiens, OS-RC-2
Description: SANGER: Inhibition of human OS-RC-2 cell growth in a cell viability assay.

HCC 2998 = format: functional, cell-based, Homo sapiens; settings: Homo sapiens, HCC 2998
Description: SANGER: Inhibition of human HCC2998 cell growth in a cell viability assay.

NEC8 = format: functional, cell-based, Homo sapiens; settings: Homo sapiens, NEC8
Description: SANGER: Inhibition of human NEC8 cell growth in a cell viability assay.

TGW = format: functional, cell-based; settings: Homo sapiens
Description: SANGER: Inhibition of human TGW cell growth in a cell viability assay.

SK-N-FI = format: functional, cell-based, Homo sapiens; settings: Homo sapiens, SK-N-FI
Description: SANGER: Inhibition of human SK-N-FI cell growth in a cell viability assay.

BV-173 = format: functional, cell-based; settings: Homo sapiens
Description: SANGER: Inhibition of human BV-173 cell growth in a cell viability assay.

KURAMOCHI = format: functional, cell-based; settings: Homo sapiens
Description: SANGER: Inhibition of human KURAMOCHI cell growth in a cell viability assay.

IST-SL1 = format: functional, cell-based, Homo sapiens; settings: Homo sapiens, IST-SL1
Description: SANGER: Inhibition of human IST-SL1 cell growth in a cell viability assay.

CGTH-W-1 = format: functional, cell-based, Homo sapiens; settings: Homo sapiens, CGTH-W-1
Description: SANGER: Inhibition of human CGTH-W-1 cell growth in a cell viability assay.

COLO-684 = format: functional, cell-based; settings: Homo sapiens
Description: SANGER: Inhibition of human COLO-684 cell growth in a cell viability assay.

NB69 = format: functional, cell-based, Homo sapiens; settings: Homo sapiens, NB69
Description: SANGER: Inhibition of human NB69 cell growth in a cell viability assay.

SNU1 = format: functional, cell-based; settings: Homo sapiens
Description: SANGER: Inhibition of human NCI-SNU-1 cell growth in a cell viability assay.

QIMR-WIL = format: functional, cell-based; settings: Homo sapiens
Description: SANGER: Inhibition of human QIMR-WIL cell growth in a cell viability assay.

HDLM-2 = format: functional, cell-based; settings: Homo sapiens
Description: SANGER: Inhibition of human HDLM-2 cell growth in a cell viability assay.

OMC-1 = format: functional, cell-based, Homo sapiens; settings: Homo sapiens, OMC-1
Description: SANGER: Inhibition of human OMC-1 cell growth in a cell viability assay.

EOL1 = format: functional, cell-based; settings: Homo sapiens
Description: SANGER: Inhibition of human EoL-1-cell cell growth in a cell viability assay.

COLO-800 = format: functional, cell-based, Homo sapiens; settings: Homo sapiens, COLO-800
Description: SANGER: Inhibition of human COLO-800 cell growth in a cell viability assay.

TE-5 = format: functional, cell-based, Homo sapiens; settings: Homo sapiens, TE-5
Description: SANGER: Inhibition of human TE-5 cell growth in a cell viability assay.

HAL-01 = format: functional, cell-based; settings: Homo sapiens
Description: SANGER: Inhibition of human HAL-01 cell growth in a cell viability assay.

KY821 = format: functional, cell-based; settings: Homo sapiens
NCI-H1395 = format: functional, cell-based, Homo sapiens; settings: Homo sapiens, NCI-H1395
Description: SANGER: Inhibition of human NCI-H1395 cell growth in a cell viability assay.

no-11 = format: functional, cell-based, Homo sapiens; settings: Homo sapiens
Description: SANGER: Inhibition of human no-11 cell growth in a cell viability assay.

DSH1 = format: functional, cell-based, Homo sapiens; settings: Homo sapiens, DSH1
Description: SANGER: Inhibition of human DSH1 cell growth in a cell viability assay.

EW-1 = format: functional, cell-based, Homo sapiens; settings: Homo sapiens, EW-1
Description: SANGER: Inhibition of human EW-1 cell growth in a cell viability assay.

## CCc1nc(N)nc(N)c1-c1ccc(Cl)cc1 [PYRIMETHAMINE]
DJM-1
  IC50: > 20 µM
CTV-1
  IC50: 2.48 µM
NKM-1
  IC50: > 20 µM
NCI-H510A
  IC50: > 20 µM
CCRF-CEM
  IC50: 9.39 µM
OS-RC-2
  IC50: 2.61 µM
HCC 2998
  IC50: 5.78 µM
NEC8
  IC50: 1.5 µM
TGW
  IC50: > 20 µM
SK-N-FI
  IC50: > 20 µM
BV-173
  IC50: 12.7 µM
KURAMOCHI
  IC50: > 20 µM
IST-SL1
  IC50: 16.1 µM
CGTH-W-1
  IC50: 17.5 µM
COLO-684
  IC50: 6.76 µM
NB69
  IC50: > 20 µM
SNU1
  IC50: 14.7 µM
QIMR-WIL
  IC50: 6.61 µM
HDLM-2
  IC50: > 20 µM
OMC-1
  IC50: > 20 µM
EOL1
  IC50: > 20 µM
COLO-800
  IC50: > 20 µM
TE-5
  IC50: > 20 µM
HAL-01
  IC50: 4.74 µM
KY821
  IC50: > 20 µM
NCI-H1395
  IC50: > 20 µM
no-11
  IC50: > 20 µM
DSH1
  IC50: 4.98 µM
EW-1
  IC50: 1.37 µM

## O=C(/C=C/c1ccccc1)NC(NC(=S)Nc1cccc2cccnc12)C(Cl)(Cl)Cl (stereo not drawn) [SALUBRINAL]
DJM-1
  IC50: > 16 µM
CTV-1
  IC50: > 16 µM
NKM-1
  IC50: 10.6 µM
NCI-H510A
  IC50: 7.04 µM
CCRF-CEM
  IC50: > 16 µM
OS-RC-2
  IC50: > 16 µM
HCC 2998
  IC50: > 16 µM
NEC8
  IC50: 6.05 µM
TGW
  IC50: > 16 µM
SK-N-FI
  IC50: > 16 µM
BV-173
  IC50: 11.5 µM
KURAMOCHI
  IC50: > 16 µM
IST-SL1
  IC50: > 16 µM
CGTH-W-1
  IC50: > 16 µM
COLO-684
  IC50: > 16 µM
NB69
  IC50: > 16 µM
SNU1
  IC50: > 16 µM
QIMR-WIL
  IC50: > 16 µM
HDLM-2
  IC50: > 16 µM
OMC-1
  IC50: > 16 µM
EOL1
  IC50: > 16 µM
COLO-800
  IC50: > 16 µM
TE-5
  IC50: > 16 µM
HAL-01
  IC50: 9.32 µM
KY821
  IC50: > 16 µM
NCI-H1395
  IC50: > 16 µM
no-11
  IC50: > 16 µM
DSH1
  IC50: > 16 µM
EW-1
  IC50: 9.71 µM

## Cc1cc(Nc2cc(N3CCN(C)CC3)nc(Sc3ccc(NC(=O)C4CC4)cc3)n2)n[nH]1 [TOZASERTIB]
DJM-1
  IC50: > 2 µM
CTV-1
  IC50: 0.588 µM
NKM-1
  IC50: 1.03 µM
NCI-H510A
  IC50: 0.438 µM
CCRF-CEM
  IC50: 0.653 µM
OS-RC-2
  IC50: > 2 µM
NEC8
  IC50: > 2 µM
TGW
  IC50: > 2 µM
SK-N-FI
  IC50: > 2 µM
BV-173
  IC50: 0.126 µM
KURAMOCHI
  IC50: 1.79 µM
IST-SL1
  IC50: > 2 µM
CGTH-W-1
  IC50: > 2 µM
COLO-684
  IC50: > 2 µM
NB69
  IC50: > 2 µM
SNU1
  IC50: > 2 µM
QIMR-WIL
  IC50: 0.427 µM
HDLM-2
  IC50: > 2 µM
OMC-1
  IC50: > 2 µM
EOL1
  IC50: 0.335 µM
COLO-800
  IC50: > 2 µM
TE-5
  IC50: > 2 µM
HAL-01
  IC50: 1.17 µM
KY821
  IC50: > 2 µM
NCI-H1395
  IC50: > 2 µM
no-11
  IC50: > 2 µM
DSH1
  IC50: > 2 µM
EW-1
  IC50: 1.19 µM

## CN1CCN(CCOc2cc(OC3CCOCC3)c3c(Nc4c(Cl)ccc5c4OCO5)ncnc3c2)CC1 [SARACATINIB]
DJM-1
  IC50: > 2 µM
CTV-1
  IC50: 0.0614 µM
NKM-1
  IC50: > 2 µM
NCI-H510A
  IC50: > 2 µM
CCRF-CEM
  IC50: > 2 µM
OS-RC-2
  IC50: 1.89 µM
NEC8
  IC50: > 2 µM
TGW
  IC50: > 2 µM
SK-N-FI
  IC50: > 2 µM
BV-173
  IC50: 0.652 µM
KURAMOCHI
  IC50: > 2 µM
IST-SL1
  IC50: > 2 µM
CGTH-W-1
  IC50: > 2 µM
COLO-684
  IC50: > 2 µM
NB69
  IC50: 1.37 µM
SNU1
  IC50: > 2 µM
QIMR-WIL
  IC50: > 2 µM
HDLM-2
  IC50: > 2 µM
OMC-1
  IC50: > 2 µM
EOL1
  IC50: > 2 µM
COLO-800
  IC50: > 2 µM
TE-5
  IC50: > 2 µM
HAL-01
  IC50: > 2 µM
KY821
  IC50: > 2 µM
NCI-H1395
  IC50: > 2 µM
no-11
  IC50: > 2 µM
DSH1
  IC50: > 2 µM
EW-1
  IC50: > 2 µM

## C=C1C(=O)O[C@@H]2C3O[C@]3(C)CC/C=C(\C)CC[C@@H]12 (stereo partly drawn)
DJM-1
  IC50: > 5 µM
CTV-1
  IC50: > 5 µM
NKM-1
  IC50: > 5 µM
NCI-H510A
  IC50: > 5 µM
CCRF-CEM
  IC50: > 5 µM
OS-RC-2
  IC50: > 5 µM
HCC 2998
  IC50: > 5 µM
NEC8
  IC50: > 5 µM
TGW
  IC50: > 5 µM
SK-N-FI
  IC50: > 5 µM
BV-173
  IC50: > 5 µM
KURAMOCHI
  IC50: > 5 µM
IST-SL1
  IC50: > 5 µM
CGTH-W-1
  IC50: > 5 µM
COLO-684
  IC50: > 5 µM
NB69
  IC50: > 5 µM
SNU1
  IC50: > 5 µM
QIMR-WIL
  IC50: > 5 µM
HDLM-2
  IC50: > 5 µM
OMC-1
  IC50: > 5 µM
EOL1
  IC50: > 5 µM
COLO-800
  IC50: > 5 µM
TE-5
  IC50: > 5 µM
HAL-01
  IC50: > 5 µM
KY821
  IC50: > 5 µM
NCI-H1395
  IC50: > 5 µM
no-11
  IC50: > 5 µM
DSH1
  IC50: > 5 µM
EW-1
  IC50: > 5 µM
